Entries after “also recorded” stand apart in the source; their conditions may differ.
What was measured:
reserpine-treated rats = test: Reversal of reserpine-induced hypolocomotion in rats; conditions: 5 µmol/kg, sc; for P compared to reserpine control (Dunnett's analysis post one-way ANOVA): horizontal locomotor activity; for Reversal of reserpine-induced hypolocomotion (horizontal activity): reserpine 5 mg/kg sc 18 h before, monitored 6 h
human D2 receptor = human D2 receptor (Homo sapiens, UniProt P14416); test: Stimulation of [35S]GTPγS binding, cloned human D2 receptor in CHO cells; conditions: [35S]GTPγS functional assay, % Emax vs DA
Chain of human D2 receptor (P14416 whole entry): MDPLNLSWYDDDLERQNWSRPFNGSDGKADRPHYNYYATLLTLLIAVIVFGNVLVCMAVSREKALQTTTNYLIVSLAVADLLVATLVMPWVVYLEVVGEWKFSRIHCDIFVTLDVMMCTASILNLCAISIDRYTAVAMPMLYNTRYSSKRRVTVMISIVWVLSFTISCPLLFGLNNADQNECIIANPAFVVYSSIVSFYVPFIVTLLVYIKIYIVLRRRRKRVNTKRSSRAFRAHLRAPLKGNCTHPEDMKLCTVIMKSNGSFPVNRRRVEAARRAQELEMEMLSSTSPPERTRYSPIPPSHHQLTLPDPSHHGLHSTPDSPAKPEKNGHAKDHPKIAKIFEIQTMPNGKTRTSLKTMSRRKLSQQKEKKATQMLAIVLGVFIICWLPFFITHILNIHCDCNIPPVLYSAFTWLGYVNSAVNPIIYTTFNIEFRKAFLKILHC

human D3 receptor = human D3 receptor (Homo sapiens, UniProt P35462); test: Stimulation of [35S]GTPγS binding, cloned human D3 receptor in CHO cells
Chain of human D3 receptor (P35462 whole entry): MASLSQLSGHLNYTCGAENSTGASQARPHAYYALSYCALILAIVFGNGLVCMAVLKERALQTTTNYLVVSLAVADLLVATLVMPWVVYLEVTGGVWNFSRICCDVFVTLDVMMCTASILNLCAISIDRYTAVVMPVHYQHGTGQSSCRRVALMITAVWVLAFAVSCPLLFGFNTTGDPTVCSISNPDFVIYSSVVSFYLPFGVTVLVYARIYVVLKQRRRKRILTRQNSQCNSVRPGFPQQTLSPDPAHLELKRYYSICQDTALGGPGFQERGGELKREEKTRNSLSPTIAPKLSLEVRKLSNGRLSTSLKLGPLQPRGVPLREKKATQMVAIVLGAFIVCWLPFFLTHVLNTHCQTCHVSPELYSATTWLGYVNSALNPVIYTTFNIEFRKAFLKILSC

[1] = system: MPTP- and lactacystin-lesioned animal models; conditions: cited from earlier work

Structure (SMILES): CCCN(CCN1CCN(c2ccc3[nH]ccc3c2)CC1)[C@H]1CCc2nc(N)sc2C1 [Compound (−)-19, (S)-N^6-{2-[4-(1H-Indol-5-yl)piperazin-1-yl]ethyl}-N^6-propyl-4,5,6,7-tetrahydro benzothiazole-2,6-diamine]
- P compared to reserpine control (Dunnett's analysis post one-way ANOVA) (reserpine-treated rats): < 0.01
- Reversal of reserpine-induced hypolocomotion (horizontal activity) (reserpine-treated rats): significantly reversing akinesia; also recorded: significant, long-lasting reversal of hypolocomotion

Structure (SMILES): CCCN(CCN1CCN(C(=O)c2c[nH]c3ccccc23)CC1)[C@H]1CCc2nc(N)sc2C1 [Compound (−)-45, (S)-(4-{2-[(2-Amino-4,5,6,7-tetrahydrobenzothiazol-6-yl)propylamino]ethyl}piperazin-1-yl)-(1H-indol-3-yl)methanone]
- Agonist activity at D2 receptor (in words) (human D2 receptor): full agonist activity
- Agonist activity at D3 receptor (in words) (human D3 receptor; [35S]GTPγS functional assay, % Emax vs DA): full agonist activity

Structure (SMILES): CCCN(CCN1CCN(c2ccc(-c3ccccc3)cc2)CC1)[C@H]1CCc2nc(N)sc2C1 [Compound D-264]
- Neuroprotection in PD animal models ([1]; MPTP and lactacystin models): neuroprotective
- Behavioral syndromes in PD mouse models ([1]; acute MPTP and progressive lactacystin mouse models): significantly improved behavioral syndromes

Structure (SMILES): CCCN(CCN1CCN(c2nccc3ccccc23)CC1)[C@H]1CCc2nc(N)sc2C1 [Compound D-301]
- Emax (human D3 receptor; CHO, read-out: hCHO-D3 % Emax): 102 ± 2%

Structure (SMILES): CCCN(CCC)CCc1cccc2c1CC(=O)N2.Cl [ropinirole]
- P compared to reserpine control (Dunnett's analysis post one-way ANOVA) (reserpine-treated rats): < 0.05
- Reversal of reserpine-induced hypolocomotion (horizontal activity) (reserpine-treated rats): significant locomotor activation

Reference: PMC3386472 (Journal of Medicinal Chemistry, 2012)
